According to PubChem BioAssay (NCI):
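A five-concentration, 48-hour dose response in 96-well plates underlies each endpoint, interpolated linearly between surrounding concentrations. GI50 is the concentration that inhibits growth by half. TGI denotes the concentration required for complete inhibition of growth.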

How the values were obtained:
Test in all cases: growth of human tumour cells (NCI), 48 h
NCI/ADR-RES ovarian = test system: NCI/ADR-RES ovarian
SK-MEL-28 melanoma = test system: SK-MEL-28 melanoma
EKVX NSCLC = test system: EKVX NSCLC
HOP-62 NSCLC = test system: HOP-62 NSCLC
MOLT-4 leukemia = test system: MOLT-4 leukemia
MALME-3M melanoma = test system: MALME-3M melanoma
RPMI-8226 leukemia = test system: RPMI-8226 leukemia
UO-31 renal = test system: UO-31 renal
SF-268 CNS = test system: SF-268 CNS
A549 NSCLC = test system: A549 NSCLC

| Structure (SMILES) | GI50 (NCI/ADR-RES ovarian) [µM] | TGI (NCI/ADR-RES ovarian) [µM] | GI50 (SK-MEL-28 melanoma) [µM] | TGI (SK-MEL-28 melanoma) [µM] | GI50 (EKVX NSCLC) [µM] | TGI (EKVX NSCLC) [µM] | GI50 (HOP-62 NSCLC) [µM] | TGI (HOP-62 NSCLC) [µM] | GI50 (MOLT-4 leukemia) [µM] | TGI (MOLT-4 leukemia) [µM] | GI50 (MALME-3M melanoma) [µM] | TGI (MALME-3M melanoma) [µM] | GI50 (RPMI-8226 leukemia) [µM] | TGI (RPMI-8226 leukemia) [µM] | GI50 (UO-31 renal) [µM] | TGI (UO-31 renal) [µM] | GI50 (SF-268 CNS) [µM] | TGI (SF-268 CNS) [µM] | GI50 (A549 NSCLC) [µM] | TGI (A549 NSCLC) [µM] |
| --- | --- | --- | --- | --- | --- | --- | --- | --- | --- | --- | --- | --- | --- | --- | --- | --- | --- | --- | --- | --- |
| C/C(=N\Nc1ccc(Cl)cn1)c1ccc2ccccc2n1 | 2.16 | > 100 | 3.6 | > 100 | 2.6 | > 100 | 2.83 | > 100 | 1.26 | > 100 | 2.21 | > 100 | 2.05 | > 100 | 1.74 | 12.9 | 2.75 | > 100 | 4.22 | > 100 |
| O=C1/C(=C(/c2ccccc2)N2CCOCC2)Cc2ccccc21 | 4.68 | 21.4 | 1.45 | 2.85 | 3.21 | 13.5 | 12.5 | 27.1 | > 100 | > 100 | 1.28 | 3.08 | 0.522 | – | 0.455 | 1.08 | 2.29 | 6.35 | 2.79 | 8.35 |
| CCOC(=O)C1CCN(S(=O)(=O)/N=C2/NC(=O)NC2=C(Cl)Cl)CC1 | 4.36 | 41.4 | 1.8 | 3.51 | 1.99 | 4.79 | 0.971 | 16.5 | 1.88 | 4.46 | 1.7 | 3.48 | 0.327 | 10.1 | 1.73 | 4.02 | 1.93 | 7.43 | 4.82 | 17.7 |
| CCc1nc2cc(F)c(/C=C/C(=O)NO)cc2c(=O)n1CCc1ccccc1 | 0.284 | 0.982 | 0.381 | 11.5 | 0.387 | 15.7 | 0.291 | 1.74 | 0.353 | 29.1 | 0.216 | 0.907 | 0.387 | 19.9 | 0.2 | 0.648 | 0.355 | 10.1 | 0.335 | 2.67 |
| COc1c2c(cc3c1OCO3)[C@]13C=C[C@H](OC)C[C@H]1N(C2)CC3O (stereo partly drawn) | – | > 100 | – | > 100 | – | > 100 | – | > 100 | – | > 100 | – | > 100 | – | > 100 | – | > 100 | – | > 100 | – | > 100 |
| O=C(Nc1n[nH]c2cc(-c3ccccc3)ccc12)C1CC1 | 1.79 | > 25 | > 22.1 | > 25 | 24.4 | > 25 | > 25 | > 25 | > 16.6 | > 25 | > 17.7 | > 25 | 9.58 | > 25 | 16.9 | > 25 | > 21.2 | > 25 | 11.6 | > 25 |
| Cc1cc2nc(C=C(C(F)(F)F)C(F)(F)F)oc2cc1C | – | 5.93 | – | > 10 | – | 8.05 | – | 9.72 | – | 5.66 | – | 3.76 | – | 5.62 | – | > 10 | – | 9 | – | > 10 |
| Cc1cc(C(=O)Nc2ccc3cc(CN4CCOCC4)ccc3n2)c(C)n1-c1ccccc1 | 1 | 4.69 | 2.91 | 8.91 | 1.38 | > 100 | 1.72 | 8.05 | 0.812 | 3.29 | 1.89 | 8.66 | 0.822 | 3.73 | 2.24 | 33.5 | 3.35 | 35.7 | 2.42 | 12.1 |
| COc1ccc(C2=C(Cl)c3cc(OC)c(OC)cc3C2Cl)cc1 (stereo not drawn) | – | 33.3 | – | 31.8 | – | 66.5 | – | 32.2 | – | > 59.4 | – | 46.9 | – | > 66.3 | – | 13.4 | – | 36 | – | 36.5 |
| C=CCCCCC/C=C\[C@@H](O)C#CC#C/C=C/CO | > 100 | > 100 | 0.867 | > 100 | > 100 | > 100 | > 100 | > 100 | 18.3 | 43.8 | > 100 | > 100 | 16.3 | 38.4 | > 100 | > 100 | 39 | > 100 | > 100 | > 100 |
| C=C(C)[C@@H]1CC[C@]2(CO)CC[C@]3(C)[C@H](CC[C@@H]4[C@@]5(C)C=C(C#N)C(=O)C(C)(C)[C@@H]5CC[C@]43C)[C@@H]12 | 1.81 | 5.04 | – | – | 1.63 | 4.61 | 1.74 | 3.85 | – | – | 1.4 | 3.82 | 0.809 | 3.86 | 1.05 | 2.77 | 1.46 | 4.78 | 1.56 | 3.5 |
| CC(=O)O[C@H]1CCC2[C@@H]3CC[C@]4(C)CC(=O)C=C[C@]4(C)C3CC[C@@]21C (stereo partly drawn) | – | 40.5 | – | 33.9 | – | > 90.5 | – | 97.9 | – | 47.9 | – | 34.3 | – | 61.5 | – | > 100 | – | 43.8 | – | 37.9 |
| CC1(C)C(=O)/C(=C\c2cccnc2)C[C@]2(C)[C@H]3CC[C@@H]4[C@H]5[C@H](C(=O)/C=C/c6cccnc6)CC[C@]5(C(=O)O)CC[C@@]4(C)[C@]3(C)CC[C@@H]12 | 3.08 | > 100 | 2.16 | 4.39 | 2.11 | 4.92 | 1.89 | 4.5 | 2.22 | 11.5 | 2 | 4.46 | 1.88 | 7.28 | – | – | 2.15 | 5.46 | 2.14 | 5.11 |
| COc1ccc(-c2[nH]c3ccc(OC)cc3c2/C=C(\C#N)S(=O)(=O)c2ccccc2)cc1 | 0.479 | 9.22 | 0.765 | > 67.8 | 3.21 | > 100 | 2.97 | 48.1 | 0.745 | > 20.2 | 3.13 | > 82.2 | 1.28 | 6.64 | 2.69 | > 27.6 | 1.56 | > 100 | 2.01 | > 68.3 |
| CN1CCN(CCCNc2nc3ccc(Oc4ccc(NC(=O)Nc5cc(C(F)(F)F)ccc5F)cc4)cc3[nH]2)CC1 | > 25 | > 25 | 4.24 | 7.73 | 6.69 | > 25 | 3.84 | 7.25 | 4.83 | 9.89 | 4.69 | 9.67 | 5.88 | 14 | > 25 | > 25 | 4.17 | 8.04 | 4.31 | 8.08 |
| COc1cc2c3c(n(CCCN)c(=O)c2cc1OC)-c1ccc(C#N)cc1C3=O | 48 | > 100 | 18.5 | 35.7 | 19 | 41.9 | 4.01 | 19.1 | 0.748 | 3.49 | 18.9 | 73.3 | 19.1 | 41.5 | 19.1 | 71.2 | 14.7 | 42.4 | 5.53 | 22.1 |
| CCCCCCCCCCCCCCCC(=O)OCC(C[As](=O)(O)O)OC(=O)CCCCCCCCCCCCCCC (stereo not drawn) | – | > 100 | – | > 100 | – | > 100 | – | > 100 | – | > 100 | – | > 100 | – | > 100 | – | > 100 | – | > 100 | – | > 100 |
| COCC[C@H]1CCC/C=C/[C@@H]2C[C@H](O)C[C@H]2[C@H](O)/C=C/C(=O)O1 | 0.0472 | – | 0.0345 | 0.153 | 0.114 | > 100 | 0.0946 | > 100 | 0.353 | > 100 | 0.0344 | 0.228 | 0.284 | – | 0.0563 | – | 0.0488 | > 100 | 0.113 | > 100 |
| CCNCCNc1cc(-c2ccc(C(F)(F)F)cc2)c(C#N)c2nc3ccccc3n12 | 1.52 | 2.98 | 1.54 | 3.05 | 1.62 | 3.07 | 1.56 | 3.18 | 1.31 | 3.29 | 1.74 | 3.34 | 1.36 | 3.61 | 1.36 | 2.77 | 1.48 | 3.04 | 1.75 | 3.41 |
| COc1cc2c(cc1OCCCCC(=O)Nc1cc3c4ccccc4ccc3c3ccccc13)N=C[C@@H]1CCCN1C2=O | 32.2 | > 85.7 | 3.41 | 12.2 | 17.3 | 64.2 | 10.1 | 40.8 | 4.62 | > 100 | 3.85 | 16 | 1.11 | – | 1.22 | – | 2.67 | 15 | 27.1 | 61.3 |
| COc1cc(OC)c(C(=O)/C=C/c2cccc(C(F)(F)F)c2)c(OC)c1 | 1.4 | 5.95 | 1.51 | 4.74 | 1.5 | 4.3 | 1.56 | 5.46 | 0.873 | 3.75 | 2.38 | 8.3 | 1.03 | 2.85 | 1.43 | 5.24 | 1.64 | 6.13 | 1.48 | 4.82 |
| C=C1C(=O)O[C@H]2[C@H]1CC/C(COC(=O)NCCCCNC(=O)OC/C1=C/CC[C@@]3(C)O[C@H]3[C@H]3OC(=O)C(=C)[C@@H]3CC1)=C\CC[C@@]1(C)O[C@@H]21 | 37.7 | > 100 | 0.529 | 2.3 | 3.69 | 13.5 | 3.84 | 14 | 1.47 | 4.15 | 0.452 | 2.19 | 0.547 | 3.08 | 7.61 | 20.9 | 3.18 | 12.6 | 8.01 | 23.1 |
| COc1ccc(C(=O)c2cc(OC)c(OC)c(OC)c2)cc1/C=C/C(=O)c1ccc(F)cc1 | 3.69 | 73.2 | 2.48 | 7.25 | 11.1 | 31.4 | 3.92 | 26.7 | 3.24 | 29.3 | 2.76 | 8.87 | 2.32 | 6.98 | 1.77 | 3.49 | 3.86 | 16.1 | 16.5 | > 100 |
| COc1ccc(C(=O)c2cc(C)c(OC)c(C)c2)cc1OC(=O)CCl | < 0.01 | > 63.5 | 0.0396 | > 100 | 0.0928 | > 100 | < 0.0191 | > 100 | < 0.0158 | > 100 | 13.1 | 59.6 | < 0.01 | 25.3 | – | > 100 | < 0.011 | > 100 | 0.0845 | > 100 |
| COc1ccc(-c2nc3ccccn3c2/C=C/C(=O)c2cc(OC)c(OC)c(OC)c2)cc1OC | 2.18 | 8.04 | 3.3 | 14.7 | 1.71 | > 100 | 4.42 | 30 | – | – | 2.36 | 7.34 | 0.398 | 2.51 | 0.552 | 12.7 | 3.58 | 65.2 | 3.86 | 30.7 |
| COc1ccc(/C=C/c2c(C(=O)/C=C/c3ccccc3)c(C)nc3ccccc23)cc1 | 2.51 | 7.52 | 1.88 | 3.47 | 1.77 | 3.56 | 1.89 | 3.58 | 1.33 | 5.69 | 1.74 | 3.2 | 1.74 | 5.54 | 1.28 | 2.54 | 2.18 | 5.65 | – | – |
